Measured values taken from paper PMC10279719 (Nature Communications, 2023).

Columns and labels:
[1] = biological target: T1, 14-3-3γ (Homo sapiens, UniProt P61981); experiment: ITC, 14-3-3γ titrated into PEAK3 tandem peptides; format: binding; conditions: binary, 14-3-3γ (syringe) into peptide (20 µM, cell), 25 °C, 20 mM HEPES pH 7.4, 150 mM NaCl, 1 mM TCEP, single-site fit, mean ± S.E.M. of N = 4 (N = 1 for non-phosphorylated peptide)
T1 construct: 14-3-3γ (UniProt P61981-1; residues 1–247); 8-His tag with TEV protease cleavage site (N); made in house; host or cells: E. coli C41 (DE3)
T1 sequence (P61981 1-247): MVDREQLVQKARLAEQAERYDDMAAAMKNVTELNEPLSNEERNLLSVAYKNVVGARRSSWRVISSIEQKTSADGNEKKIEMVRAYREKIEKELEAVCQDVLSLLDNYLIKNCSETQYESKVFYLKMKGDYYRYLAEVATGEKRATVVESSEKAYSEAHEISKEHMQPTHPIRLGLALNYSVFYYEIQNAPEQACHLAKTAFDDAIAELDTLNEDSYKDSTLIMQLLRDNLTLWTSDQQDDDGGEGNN
Protocol: ITC binding experiments were conducted using a MicroCal iTC200 instrument (Malvern Instruments). Titrations were conducted at 25 °C in reverse mode (peptide in cell, protein in syringe) and consisted of 19 injections of 2 μl […] at a rate of 2 s μl^−1 at 90 s time intervals, whilst stirring at 1000 rpm. An initial injection of 0.4 μl protein was made and discarded during data analysis. Proteins (14-3-3ɣ or CrkII^NSH3) were first dialyzed overnight at 4 °C into ITC buffer (20 mM HEPES pH 7.4, 150 mM NaCl, 1 mM TCEP), filtered and degassed under vacuum. […] Following the first titration, excess solution was removed from the cell, and the syringe was washed and dried. […] All data were fitted to a single binding site model to obtain the stoichiometry (N), dissociation constant (KD) and the enthalpy of binding (ΔH), using MicroCal PEAQ-ITC Analysis software (v.1.41).

[2] = biological target: T2, CrkII^NSH3 (Homo sapiens, UniProt P46108); experiment: SPR, PEAK PRM and tandem peptides binding to immobilised CrkII NSH3 domain; conditions: peptide analyte over amine-coupled CrkII NSH3 (CM5); Biacore S200, HBS-TP pH 7.4, 20 °C; steady-state 1:1 fit; mean ± S.E.M. (N ≥ 3) or SD (N = 2); read-out: SPR KD, CrkII N-SH3
T2 construct: CrkII^NSH3; UniProt P46108-1, residues 134–191; 8-His tag with TEV protease cleavage site (N); made in house; host or cells: E. coli C41 (DE3)
T2 sequence (P46108 134-191): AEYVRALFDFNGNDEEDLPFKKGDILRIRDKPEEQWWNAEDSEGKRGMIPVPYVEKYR
Protocol: SPR binding studies of PEAK PRM peptides to CrkII^NSH3 were performed using a Biacore S200 Instrument (Cytiva). Purified CrkII^NSH3 was diluted to 5 µg ml^−1 in 10 mM sodium acetate pH 4.0 and amine coupled at 25 °C to a Series S CM5 sensor chip, in HBS-N running buffer (20 mM HEPES pH 7.4, 150 mM NaCl) to a final immobilization level of 1100–1400 response units (RU), followed by surface deactivation using 1 M ethanolamine. A blank activation/deactivation was used for the reference surface. Peptide binding studies were performed at 20 °C in HBS-TP running buffer (20 mM HEPES pH 7.4, 150 mM NaCl, 1 mM TCEP, 0.005% (v/v) Tween-P20). […] Peptide stocks were further diluted to in running buffer to 10 or 20 µM and prepared as a 11-point concentration series (2-fold serial dilution, […] for PEAK PRM peptides, or 20 µM–20 nM for PEAK tandem motif peptides). Samples were injected in a multi-cycle run (flow rate 30 µl min^−1, contact time of 60 s, dissociation 120 s) without regeneration. Sensorgrams were double referenced, and steady-state binding data fitted using a 1:1 binding model using Biacore S200 Evaluation Software (Cytiva, v. 1.1).

[3] = biological target: T1, 14-3-3γ; experiment: SPR, PEAK peptides binding to immobilised 14-3-3γ; conditions: peptide analyte over amine-coupled 14-3-3γ (CM5), Biacore S200, HBS-TP pH 7.4, 20 °C, steady-state 1:1 fit, mean ± S.E.M.
Protocol: Purified […]3 was diluted to 5 μg ml^-1 in 10 mM sodium acetate pH 4.0 and amine coupled at 25 °C to a Series S CM5 sensor chip, in HBS-N running buffer (20 mM HEPES pH 7.4, 150 mM NaCl) to a final immobilization level of 1100-1400 response units (RU), followed by surface deactivation using 1 M ethanolamine. A blank activation/deactivation was used for the reference surface. […] Samples were injected in a multi-cycle run (flow rate 30 μl min^-1, contact time of 60 s, dissociation 120 s) without regeneration. Sensorgrams were double referenced, and steady-state binding data fitted using a 1:1 binding model using Biacore S200 Evaluation Software (Cytiva, v. 1.1). […] Representative sensorgrams and fitted dissociation constant (KD) values, depicted as mean ± S.E.M.

[4] = biological target: T3, 14-3-3ε (Homo sapiens, UniProt P62258); experiment: SPR, PEAK tandem peptides binding to immobilised 14-3-3ε; conditions: peptide analyte over amine-coupled 14-3-3ε (CM5); Biacore S200, HBS-TP pH 7.4, 20 °C; steady-state 1:1 fit; mean ± S.E.M.; read-out: SPR KD, 14-3-3ε (epsilon)
T3 construct: 14-3-3ε (UniProt P62258-1; residues 1–255); 8-His tag with TEV protease cleavage site (N); made in house; host or cells: E. coli C41 (DE3)
T3 sequence (P62258 1-255): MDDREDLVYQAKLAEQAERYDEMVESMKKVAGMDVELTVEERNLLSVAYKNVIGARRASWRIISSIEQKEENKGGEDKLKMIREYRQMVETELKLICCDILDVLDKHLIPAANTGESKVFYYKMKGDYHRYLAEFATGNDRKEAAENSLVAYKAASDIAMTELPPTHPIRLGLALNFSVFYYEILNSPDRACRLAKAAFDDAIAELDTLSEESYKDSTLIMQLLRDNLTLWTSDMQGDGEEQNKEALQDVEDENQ
Protocol: Purified […]3 was diluted to 5 μg ml^-1 in 10 mM sodium acetate pH 4.0 and amine coupled at 25 °C to a Series S CM5 sensor chip, in HBS-N running buffer (20 mM HEPES pH 7.4, 150 mM NaCl) to a final immobilization level of 1100-1400 response units (RU), followed by surface deactivation using 1 M ethanolamine. A blank activation/deactivation was used for the reference surface. […] PEAK PRM peptides: […] Samples were injected in a multi-cycle run (flow rate 30 μl min^-1, contact time of 60 s, dissociation 120 s) without regeneration. Sensorgrams were double referenced, and steady-state binding data fitted using a 1:1 binding model using Biacore S200 Evaluation Software (Cytiva, v. 1.1). […] Representative sensorgrams and fitted dissociation constant (KD) values, depicted as mean ± S.E.M.

ITC KD, 14-3-3γ [1]: no appreciable binding
ITC KD, 14-3-3γ ([1]; 54–74): No binding
ITC KD, 14-3-3γ ([1]; listed as PEAK3 tandem): no binding
Kd [2]: 0.6 ± 0.02 µM
SPR KD, 14-3-3γ (gamma) [3]: no appreciable binding
SPR KD, 14-3-3γ (gamma) ([3]; 54–74): No binding
Kd ([3]; read-out: SPR KD, 14-3-3γ (gamma)): > 100 µM
Kd [4]: > 100 µM
SMILES: CC[C@H](C)[C@H](NC(=O)[C@H](CCCCN)NC(=O)[C@H](CCCCN)NC(=O)[C@@H]1CCCN1C(=O)[C@H](CC(C)C)NC(=O)[C@@H]1CCCN1C(=O)[C@@H]1CCCN1C(=O)[C@@H]1CCCN1C(=O)[C@H](CC(C)C)NC(=O)[C@@H]1CCCN1C(C)=O)C(=O)N[C@@H](CC(C)C)C(=O)N[C@H](C(=O)N[C@@H](CCCNC(=N)N)C(=O)N[C@H](C(=O)N[C@@H](CCC(N)=O)C(=O)N[C@@H](CO)C(=O)N[C@@H](CC(C)C)C(=O)N1CCC[C@H]1C(=O)N[C@H](C(=O)N[C@@H](CCCNC(=N)N)C(=O)N[C@@H](CCCNC(=N)N)C(N)=O)[C@@H](C)O)[C@@H](C)O)[C@@H](C)O (single isomer, unassigned) [PEAK3^tandem]
